Experimental data taken from paper PMC5958064, “Single cell analysis of kynurenine and System L amino acid transport in T cells” (Nature Communications, 2018).
Values belong to the molecule of their own block, whether it stands above or below them.

What was measured:
AHR [1] = test: Cyp1a1 mRNA induction in TH17cond CD4+ T cells (qPCR); format: cell-based, mouse
Procedure: To activate primary T cells, spleens and/or lymph nodes (LN) were removed, disaggregated and red blood cells lysed. Cells were stimulated with 1 μg/ml of the CD3 monoclonal antibody (2C11) and 2 μg/ml anti-CD28 (37.51; ebiosciences) to trigger the TCR. Naive CD4^+ T cells and 24 h TCR-activated CD4^+ T cells were purified using CD4 isolation kit (EasySep, STEMCELL Technologies). […] Proleukin, Novartis) for a further 3–5 days. To generate TH1s and TH17s, murine CD8^+ T cells were depleted from lymph node preparations using CD8 depletion kit (EasySep, STEMCELL Technologies). […] RnD Systems) and IL-2 (20 ng/ml) and for TH17s; cytokines IL-6 (50 ng/ml, Peprotech), IL-1β (10 ng/ml, Peprotech) and TGFβ (2 ng/ml, Peprotech). TH17s were cultured in IMDM (Gibco). All other cells were cultured in RPMI 1640 containing L-glutamine (Gibco). Culture media was supplemented with 10% FBS (Gibco), 50 μM β-mercaptoethanol (β-ME, Sigma) and penicillin/streptomycin (Gibco). Cells were incubated at 37 °C with 5% CO2 throughout. […] RNA was purified using the RNeasy RNA purification Mini Kit (Qiagen) (Genomic DNA was digested with RNase-free DNase (Qiagen) following manufacturer instructions) and reverse-transcribed using the iScript cDNA synthesis kit (BioRad). Quantitative PCR was performed in 96-well plate format using iQ SYBR Green-based detection (BioRad) on a BioRad iCycler.

AHR [2] = tested on: AHR; design: method as in PMID 25657351, PMID 29279331; settings: cited from earlier work
[3] = molecular target: T1, System L transporter SLC7A5 (Mus musculus, UniProt Q9Z127); test: Radiolabelled 3H-kynurenine uptake in T cells; format: cell-based; settings: compared with kynurenine Km ~200 μM
T1 construct: endogenous in cells
Procedure: To activate primary T cells, spleens and/or lymph nodes (LN) were removed, disaggregated and red blood cells lysed. Cells were stimulated with 1 μg/ml of the CD3 monoclonal antibody (2C11) and 2 μg/ml anti-CD28 (37.51; ebiosciences) to trigger the TCR. Naive CD4^+ T cells and 24 h TCR-activated CD4^+ T cells were purified using CD4 isolation kit (EasySep, STEMCELL Technologies). […] Proleukin, Novartis) for a further 3-5 days. To generate TH1s and TH17s, murine CD8^+ T cells were depleted from lymph node preparations using CD8 depletion kit (EasySep, STEMCELL Technologies). […] RnD Systems) and IL-2 (20 ng/ml) and for TH17s; cytokines IL-6 (50 ng/ml, Peprotech), IL-1β (10 ng/ml, Peprotech) and TGFβ (2 ng/ml, Peprotech). TH17s were cultured in IMDM (Gibco). All other cells were cultured in RPMI 1640 containing L-glutamine (Gibco). Culture media was supplemented with 10% FBS (Gibco), 50 μM β-mercaptoethanol (β-ME, Sigma) and penicillin/streptomycin (Gibco). Cells were incubated at 37 °C with 5% CO2 throughout. […] Cells were pelleted below the oil, the aqueous supernatant solution, followed by the silicon oil/dibutyl phthalate mixture was aspirated, and the cell pellet underneath resuspended in 200 μl NaOH (0.5 M) and β-radioactivity measured by liquid scintillation counting in a Beckman LS 6500 Multi-Purpose Scintillation Counter (Beckman Coulter). […] Where indicated, the sodium free buffer was prepared using TMACl as described in Baird et al.[35] Data are expressed as molecules radiotracer per cell per minute. […] All other chemicals were obtained from Sigma.

[4] = molecular target: T1, System L transporter SLC7A5; test: Flow cytometry kynurenine uptake assay (450 nm fluorescence) in T cells; format: cell-based; settings: for IC50: 37 °C; for IC50 / effect on kynurenine transport (450 nm fluorescence): 4 min; for effect on kynurenine transport ex vivo: D7 rLM-infected CD8+ T cells; for effect on kynurenine transport ex vivo / effect on kynurenine transport (450 nm fluorescence): BCH 10 mM, Leu 5 mM, Lys 5 mM; for effect on kynurenine transport (450 nm fluorescence): TCR-stimulated CD8+ T cells or CTLs
From the text: For cell surface staining, antibodies conjugated to FITC, PE, APC, Alexafluor 647 (A647), APC-efluor780 (APCe780), and PerCPCy5.5 were obtained from either BD Pharmingen, eBioscience or Biolegend. Fc receptors were blocked using Fc Block (BD Pharmingen). Antibody clones used were: CD4 (RM4-5), CD8a (53-6.7), TCRβ (H57-597), CD44 (IM7), CD45.1 (A20), CD45.2 (104) and CD98 (RC388). Cells were fixed using 1% paraformaldehyde. Standard intracellular cytokine staining protocols were followed for IFNγ (clone XMG1.2; Biolegend) staining. Data were acquired on a LSR Fortessa II with DIVA software or a FACSVerse flow cytometer with FACSuite software (BD Biosciences) and analysed using FlowJo software version 9.9.5 (TreeStar).
Start with at least 1 × 10^6 cells per condition, to obtain at least 200,000 events analysed by flow cytometry at the end of the protocol. […] If required, surface cell antibody staining should be performed prior to uptake assay protocol. This may be performed at room temperature or 4 °C, however test samples must be warmed to 37 °C, e.g. in water bath, prior to kynurenine uptake. (As with all multi-parameter flow cytometry, appropriate antibody staining controls must also be performed.) Samples can be fixed immediately after uptake assay by addition of 4% (vol/vol) paraformaldehyde (PFA; to a final concentration of 1%) for 30 min at room temperature.
For kynurenine uptake assay; pre-warm kynurenine (800 μM, in HBSS), BCH (40 mM, in HBSS) and lysine (20 mM, HBSS) and HBSS to 37 °C. After surface antibody staining of samples, resuspend cells in 200 μl warmed HBSS (1–5 × 10^6 cells in FACS tubes, or scale accordingly into plates). Keep cells in water bath at 37 °C. Add 100 μl of HBSS, or BCH or lysine to appropriate samples. Add 100 μl HBSS to no kynurenine controls (final volume 400 μl). Finally, add 100 μl kynurenine to appropriate samples. Stop uptake after 4 min by adding 125 μl 4% PFA for 30 min at room temperature, in the dark. The final concentrations for uptake assay are: 200 μM kynurenine; +/-10 mM BCH; +/-5 mM lysine. After fixation, wash cells twice in PBS/0.5% BSA and resuspend in PBS/0.5% BSA prior to acquisition on flow cytometer. The 405 nm laser and 450/50 BP filter are used for kynurenine fluorescence detection.
To monitor kynurenine uptake in live cells, acquire data on flow cytometer immediately following addition of kynurenine and plot fluorescence against time.

mTORC1 = mTORC1 activity in CTLs after leucine removal and refeeding; format: cell-based, mouse; settings: CTLs removed from leucine, refed leucine 100uM ± Kyn 100uM
From the text: page 13: • We […] would not be able to measure the levels of in vivo ky nurenine uptake with this assay (for the reasons explained above). However, this is a pertinent question, and will relate to the total amount of available kynurenine compared to alternative System L substrates. The detailed micro-environmental metabolomics techniques required to perform this kind of analysis is beyond the scope of this paper, however we have tried to address this point in the discussion. Second, did CD4 T cells (Foxp3-) and Tregs (Foxp3+) from Lm-infected mice also i mport Ky n? […] This, also, is a very interesting aspect, however we feel that it is beyond the scope of this paper. Point 4: Data presented in Figures 4 & 5 show convincingly that SLC7A5 ablation in CD4 T cells abolishes Kyn uptake in CD4 T cells selectively and that imported Kyn triggers AhR signaling in CD4 T cells, respectively. However, no data is presented to address the biological significance of these findings, specifically regarding the reported ability of Kyn to suppress Th1 responses (e.g. IFNg production) or to reinforce Treg-mediated suppression of effector T cells via AhR signaling. […]

T1 sequence (Q9Z127 whole entry): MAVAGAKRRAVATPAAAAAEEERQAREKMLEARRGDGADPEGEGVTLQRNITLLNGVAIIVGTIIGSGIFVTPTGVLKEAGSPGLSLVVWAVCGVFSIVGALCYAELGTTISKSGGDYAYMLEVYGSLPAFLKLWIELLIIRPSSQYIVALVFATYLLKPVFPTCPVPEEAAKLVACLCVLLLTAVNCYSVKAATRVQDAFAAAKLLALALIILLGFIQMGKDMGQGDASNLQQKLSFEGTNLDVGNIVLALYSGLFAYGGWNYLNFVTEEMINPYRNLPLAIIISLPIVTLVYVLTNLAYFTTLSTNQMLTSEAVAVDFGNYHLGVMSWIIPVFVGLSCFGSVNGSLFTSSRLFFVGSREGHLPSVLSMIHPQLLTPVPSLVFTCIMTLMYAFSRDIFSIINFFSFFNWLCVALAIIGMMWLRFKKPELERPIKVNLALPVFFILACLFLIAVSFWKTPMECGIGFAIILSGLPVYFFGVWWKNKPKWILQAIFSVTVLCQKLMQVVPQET
T1 sequence (P10852 whole entry partner): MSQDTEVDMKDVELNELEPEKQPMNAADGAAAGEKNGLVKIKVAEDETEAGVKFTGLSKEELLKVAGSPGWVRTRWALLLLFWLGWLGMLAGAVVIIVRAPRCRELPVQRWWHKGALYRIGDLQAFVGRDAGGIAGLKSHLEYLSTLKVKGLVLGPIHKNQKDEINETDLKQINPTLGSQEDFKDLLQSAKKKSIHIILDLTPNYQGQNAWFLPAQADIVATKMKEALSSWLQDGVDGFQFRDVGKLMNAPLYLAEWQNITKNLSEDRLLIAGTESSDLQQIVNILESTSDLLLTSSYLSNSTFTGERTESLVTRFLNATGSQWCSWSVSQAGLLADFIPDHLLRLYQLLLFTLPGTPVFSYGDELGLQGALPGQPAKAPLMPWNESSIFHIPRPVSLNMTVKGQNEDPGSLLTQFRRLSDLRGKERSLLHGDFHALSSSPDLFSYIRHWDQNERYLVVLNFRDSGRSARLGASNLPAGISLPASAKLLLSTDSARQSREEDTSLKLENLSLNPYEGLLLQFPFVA

SMILES: Cc1ccccc1N=Nc1ccc(NC(=O)c2ccnn2C)c(C)c1 [CH223191]
effect on kynurenine-induced Cyp1A1 mRNA (AHR [1]; D3 TH17cond cells, kynurenine 10 μM 2 h, CH223191 30 μM): completely blocked

Cyp1a1 mRNA induction, D3 versus D5 post activation (AHR [1]; TH17cond CD4+ T cells, kynurenine 100 μM or FICZ 300 nM, 2 h): equivalent on D3 and D5
SMILES: O=Cc1c2[nH]c3ccccc3c2cc2[nH]c3ccccc3c12 [FICZ, 6-formylindolo[3,2-b]carbazole]
concentrations needed to activate the AHR (AHR [2]): pM/nM range

SMILES: Clc1cc2c(cc1Cl)Oc1cc(Cl)c(Cl)cc1O2 [TCDD, 2,3,7,8-tetrachlorodibenzo-p-dioxin]
concentrations needed to activate the AHR (AHR [2]): pM/nM range

Km of other System L substrates relative to Km of kynurenine [3]: ~ 10 fold less | IC50 ([4]; CTL): 411 ± 30 µM | IC50 ([4]; D7 rLM CD8+ effector T cells from spleen, ex vivo): 168 ± 38 µM | effect on kynurenine transport ex vivo [4]: blocked
SMILES: CC(C)C[C@H](N)C(=O)O [leucine]
effect on kynurenine transport (450 nm fluorescence) [4]: blocks kynurenine transport to comparable levels as BCH | effect on mTORC1 activity (mTORC1): establishes mTORC1 activity

effect on kynurenine uptake ([4]; CD3/CD28 activated wild-type T cells in co-culture, 5 mM lysine, BCH): did not inhibit kynurenine uptake | effect on kynurenine transport ex vivo [4]: not by lysine competition | effect on kynurenine transport (450 nm fluorescence) [4]: does not affect kynurenine transport
SMILES: NCCCC[C@H](N)C(=O)O [lysine]

Km of other System L substrates relative to Km of kynurenine [3]: ~ 10 fold less
SMILES: CSCC[C@H](N)C(=O)O [methionine]

Km of other System L substrates relative to Km of kynurenine [3]: ~ 10 fold less
SMILES: N[C@@H](Cc1c[nH]c2ccccc12)C(=O)O [tryptophan]
